We go through 14 compounds from publication PMC7601695, “Transcriptome Analysis of Psacothea hilaris: De Novo Assembly and Antimicrobial Peptide Prediction” (Insects, 2020).

What all share (type): cell-based
Data set [1] concerns Escherichia coli (KACC 13821, ATCC 11775). Description: Radial diffusion assay, E. coli. The following applies: for Diameter of clearing zone, E. coli: peptide 200 μg/mL, 5 μL per 3-mm well, 3 h diffusion then 12 h at 37 °C, mean of tests repeated three times; for Antimicrobial activity compared with melittin, E. coli: in words. As to the method:
(§1) The bacterial strains Escherichia coli (KACC 13821, ATCC 11775) and Staphylococcus aureus (KACC 10768, ATCC 25923), and the yeast strain Candida albicans (KCTC 7121, ATCC 14053) were purchased from the Korean Agricultural Culture Collection (KACC) and Korean Collection for Type Cultures (KCTC). Both bacteria and yeast were grown overnight in tryptic soy broth (TSB; Difco, Thermo Fisher Scientific, Waltham, MA, USA) at 37 °C, 200 rpm to the stationary phase. Bacteria were re-inoculated in fresh TSB medium and cultivated for 3 h to the log phase. The strains were stored with 15% glycerol at −70 °C.
(§2) The radial diffusion assay was performed to test the antimicrobial activities of peptides, as described previously with slight modifications. In brief, bacteria and yeast strains were grown to the mid-logarithmic phase in TSB at 37 °C and then washed twice with 10 mM sodium phosphate buffer (pH 7.4). A total of 4 × 10^6 colony forming unit (CFU) was added to 10 mL of an underlay agarose gel (9 mM sodium phosphate, 1 mM sodium citrate, pH 7.4, 1% (w/v) Type I (low electroendosmosis) agarose (Sigma, St. Louis, MO, USA), and 3% TSB (Difco, USA)). The underlay gel was poured into a 100-mm INTEGRIDTM Petri dish. After agarose solidification, 3-mm-diameter wells were punched and 5 μL of each peptide solution was added to each well. Buffer alone was used as a negative control. Plates were incubated at 37 °C for 3 h to allow for diffusion of the peptides. The underlay gel was then covered with 10 mL of nutrient-rich agar overlay (6% TSB and 1% agarose). The antimicrobial activity of a peptide was measured as the diameter of the cleared zone around each well after 12 h of incubation at 37 °C. This experiment was repeated at least 3 times.

The subject of data set [2] is Candida albicans (KCTC 7121, ATCC 14053). Description: Radial diffusion assay, C. albicans. The settings on record: for Diameter of clearing zone, C. albicans: peptide 200 μg/mL, 5 μL per 3-mm well, 3 h diffusion then 12 h at 37 °C, mean of tests repeated three times; for Antimicrobial activity compared with melittin, C. albicans: in words. As to the method:
as §1, §2

The test system of data set [3] is mouse erythrocytes. The experiment in a line: Hemolytic assay. The settings on record: 12.5 μg/mL; 2.5% (v/v) mouse erythrocytes in PBS; 30 min, 37 °C; A540. As to the method: This experiment was approved by the Institutional Animal Care and Use Committee (IACUC) of the National Institute of Agricultural Sciences (approval number: NAS-202014). The hemolytic activity of the peptides was determined by monitoring the release of hemoglobin from mouse erythrocytes at 540 nm. For the hemolytic assay, 20 μL of each peptide solution at a predetermined concentration was added to 180 μL of a 2.5% (v/v) suspension of mouse erythrocytes in phosphate-buffered saline (PBS). Melittin (Sigma), a hemolytic and α-helical peptide isolated from bee venom, were used as the positive control. This mixture was incubated for 30 min at 37 °C, and 600 μL of PBS was then added to each tube. After 3 min of centrifugation at 10,000× g, the supernatant was […], and the absorbance was measured at 540 nm. Evaluations were made from the results of at least three independent experiments, each carried out in triplicate.
Figure 4 Cytotoxic effects of 13 selected peptides. Hemolytic activity of the peptides. Peptide concentration (x-axis) is plotted against the percentage of hemolysis (y-axis) of mouse red blood cells after incubation for 30 min. Melittin was used as the positive control. The percent hemolysis was calculated with the following equation: hemolysis (%) = (A540 of samp—A540 of peptide-free control)/(A540 of 100% control—A540 of peptide-free control) × 100. […]

The subject of data set [4] is Staphylococcus aureus (KACC 10768, ATCC 25923). The experiment in a line: Radial diffusion assay, S. aureus. The following applies: peptide 200 μg/mL, 5 μL per 3-mm well, 3 h diffusion then 12 h at 37 °C, mean of tests repeated three times. As to the method: as §1, §2

On to `CC[C@H](C)[C@H](NC(=O)CN)C(=O)NCC(=O)N[C@@H](C)C(=O)N[C@H](C(=O)N[C@@H](CC(C)C)C(=O)N[C@@H](CCCCN)C(=O)N[C@H](C(=O)N[C@@H](CC(C)C)C(=O)N[C@H](C(=O)N[C@H](C(=O)NCC(=O)N[C@@H](CC(C)C)C(=O)N1CCC[C@H]1C(=O)N[C@@H](C)C(=O)N[C@@H](CC(C)C)C(=O)N[C@H](C(=O)N[C@@H](CO)C(=O)N[C@@H](Cc1c[nH]c2ccccc12)C(=O)N[C@H](C(=O)N[C@@H](CCCCN)C(=O)N[C@@H](CCCNC(=N)N)C(=O)N[C@@H](CCCCN)C(=O)N[C@@H](CCCNC(=N)N)C(=O)N[C@@H](CCC(N)=O)C(=O)N[C@@H](CCC(N)=O)C(N)=O)[C@@H](C)CC)[C@@H](C)CC)[C@@H](C)O)[C@@H](C)O)C(C)C)C(C)C` [Melittin, reference compound], for which, in data set [1], the “Diameter of clearing zone, E. coli” value is recorded as 75 Units (1 mm = 10 Units). In addition, the “Diameter of clearing zone, C. albicans” value in data set [2] is listed as 65 Units (1 mm = 10 Units). Moreover, the “Hemolysis of mouse red blood cells” value in data set [3] turned out to be 92%. The “Diameter of clearing zone, S. aureus” value in data set [4] is 100 Units (1 mm = 10 Units).

For the compound “KIGTFIKKLSYTS * [Ph 26, synthetic peptide predicted as novel AMP from the P. hilaris transcriptome]”, in data set [1], the “Antimicrobial activity compared with melittin, E. coli” value is reported as “stronger antimicrobial activity than melittin” and the “Diameter of clearing zone, E. coli” value is reported as 85 Units (1 mm = 10 Units). Also, the “Diameter of clearing zone, C. albicans” value in data set [2] is recorded as 25 Units (1 mm = 10 Units). The “Diameter of clearing zone, S. aureus” value in data set [4] was 75 Units (1 mm = 10 Units).

Consider “KLPIVNVKLVNRIK * [Ph 2, synthetic peptide predicted as novel AMP from the P. hilaris transcriptome]”, for which, in data set [1], the “Antimicrobial activity compared with melittin, E. coli” value is “stronger antimicrobial activity than melittin” and the “Diameter of clearing zone, E. coli” value is 80 Units (1 mm = 10 Units). In data set [2], the “Antimicrobial activity compared with melittin, C. albicans” value was “stronger antimicrobial activity than melittin” and the “Diameter of clearing zone, C. albicans” value is given as 80 Units (1 mm = 10 Units). In data set [4], the “Diameter of clearing zone, S. aureus” value is recorded as 90 Units (1 mm = 10 Units).

On to “KLQVVPAIHLVWLQK * [Ph 4, synthetic peptide predicted as novel AMP from the P. hilaris transcriptome]”, for which the “Diameter of clearing zone, E. coli” value in data set [1] is on record as 75 Units (1 mm = 10 Units). For the same compound, the “Diameter of clearing zone, C. albicans” value in data set [2] is on record as 30 Units (1 mm = 10 Units). Moreover, the “Diameter of clearing zone, S. aureus” value in data set [4] was 80 Units (1 mm = 10 Units).

As for “KLSNAVFKSCRKI * [Ph 24, synthetic peptide predicted as novel AMP from the P. hilaris transcriptome]”, in data set [1], the “Diameter of clearing zone, E. coli” value is 49 Units (1 mm = 10 Units). Moreover, the “Diameter of clearing zone, C. albicans” value in data set [2] is 47 Units (1 mm = 10 Units). In addition, the “Diameter of clearing zone, S. aureus” value in data set [4] is on record as 65 Units (1 mm = 10 Units).

Regarding “KMFTKCIRYRKM * [Ph 20, synthetic peptide predicted as novel AMP from the P. hilaris transcriptome]”, the “Diameter of clearing zone, E. coli” value in data set [1] is listed as 65 Units (1 mm = 10 Units). The “Diameter of clearing zone, C. albicans” value in data set [2] is reported as 68 Units (1 mm = 10 Units). For the same compound, the “Diameter of clearing zone, S. aureus” value in data set [4] is 85 Units (1 mm = 10 Units).

Take “KRGYQVPRIAFII * [Ph 3, synthetic peptide predicted as novel AMP from the P. hilaris transcriptome]”: the “Diameter of clearing zone, E. coli” value in data set [1] is on record as 72 Units (1 mm = 10 Units). Further, in data set [2], the “Antimicrobial activity compared with melittin, C. albicans” value is “stronger antimicrobial activity than melittin” and the “Diameter of clearing zone, C. albicans” value is 80 Units (1 mm = 10 Units). Moreover, in data set [4], the “Diameter of clearing zone, S. aureus” value is on record as 85 Units (1 mm = 10 Units).

For “KRIFYLYIRGQ * [Ph 22, synthetic peptide predicted as novel AMP from the P. hilaris transcriptome]”, in data set [1], the “Antimicrobial activity compared with melittin, E. coli” value is given as “stronger antimicrobial activity than melittin” and the “Diameter of clearing zone, E. coli” value was 85 Units (1 mm = 10 Units). For the same compound, in data set [2], the “Antimicrobial activity compared with melittin, C. albicans” value was “stronger antimicrobial activity than melittin” and the “Diameter of clearing zone, C. albicans” value is listed as 92 Units (1 mm = 10 Units). Besides, the “Diameter of clearing zone, S. aureus” value in data set [4] is 95 Units (1 mm = 10 Units).

In the case of “RAIKWPGNGLLFLKY * [Ph 1, synthetic peptide predicted as novel AMP from the P. hilaris transcriptome]”, in data set [1], the “Antimicrobial activity compared with melittin, E. coli” value is recorded as “stronger antimicrobial activity than melittin” and the “Diameter of clearing zone, E. coli” value is on record as 85 Units (1 mm = 10 Units). Further, the “Diameter of clearing zone, C. albicans” value in data set [2] is given as 65 Units (1 mm = 10 Units). Besides, the “Diameter of clearing zone, S. aureus” value in data set [4] is listed as 86 Units (1 mm = 10 Units).

As to “RCLKTCFLSFIRY * [Ph 8, synthetic peptide predicted as novel AMP from the P. hilaris transcriptome]”, in data set [1], the “Diameter of clearing zone, E. coli” value is recorded as 71 Units (1 mm = 10 Units). Moreover, the “Diameter of clearing zone, C. albicans” value in data set [2] was 45 Units (1 mm = 10 Units). Moreover, the “Diameter of clearing zone, S. aureus” value in data set [4] is recorded as 83 Units (1 mm = 10 Units).

In the case of “RISCVAMRLILK * [Ph 10, synthetic peptide predicted as novel AMP from the P. hilaris transcriptome]”, the “Diameter of clearing zone, E. coli” value in data set [1] is on record as 67 Units (1 mm = 10 Units). The “Diameter of clearing zone, C. albicans” value in data set [2] was 48 Units (1 mm = 10 Units). Also, the “Diameter of clearing zone, S. aureus” value in data set [4] was 72 Units (1 mm = 10 Units).

As to “RKSWRHWKC * [Ph 16, synthetic peptide predicted as novel AMP from the P. hilaris transcriptome]”, the “Diameter of clearing zone, E. coli” value in data set [1] is recorded as 50 Units (1 mm = 10 Units). In addition, in data set [2], the “Diameter of clearing zone, C. albicans” value is 65 Units (1 mm = 10 Units). Besides, the “Diameter of clearing zone, S. aureus” value in data set [4] is given as 87 Units (1 mm = 10 Units).

On to “RLLLLCYACGKS * [Ph 12, synthetic peptide predicted as novel AMP from the P. hilaris transcriptome]”, for which the “Diameter of clearing zone, E. coli” value in data set [1] is on record as 70 Units (1 mm = 10 Units). In addition, the “Diameter of clearing zone, C. albicans” value in data set [2] is given as 40 Units (1 mm = 10 Units). In addition, in data set [4], the “Diameter of clearing zone, S. aureus” value was 75 Units (1 mm = 10 Units).

Consider “RRRCRCCRY * [Ph 14, synthetic peptide predicted as novel AMP from the P. hilaris transcriptome]”, for which the “Diameter of clearing zone, E. coli” value in data set [1] is reported as 65 Units (1 mm = 10 Units). In addition, in data set [2], the “Antimicrobial activity compared with melittin, C. albicans” value was “stronger antimicrobial activity than melittin” and the “Diameter of clearing zone, C. albicans” value is listed as 105 Units (1 mm = 10 Units). In addition, the “Diameter of clearing zone, S. aureus” value in data set [4] is 70 Units (1 mm = 10 Units).
